Patent USRE38994E1, “Pyropheophorbides conjugates and their use in photodynamic therapy” (Health Research, Inc., priority 1988, dated 2006)
One block for each compound: values may come before it.

Legend:
[1] = Normal foot response / skin clearance after light exposure; type: in vivo, albino Swiss mice (HaICR); details: for Normal Foot Response Maximum Reaction (score): same light conditions as tumor treatment, score 0.3 - slight edema, 0 - no reaction
Procedure: Six albino Swiss mice (HaICR) are injected intravenously with a dose of 0.1 mg/kg body weight of the compound of formula IIa prepared as in Example 1. After approximately 24 h, the hind foot of the animal is exposed to the same dose of either laser light at 660-670 nm (135 Joules/cm^2) or the Xenon arc lamp (283 Joules/cm^2) as above. The reaction of the foot is scored for damage over the next few days to determine the maximum effect, which in this case is a value 0.3 equivalent to slight edema. If the internal between the injection and light treatment is extended to approximately 48 h, the foot reaction is zero (no damage incurred), indicating either clearance or metabolism of the sensitizer.

SMT-F tumor = assay: In vivo tumor photosensitizing activity (photodynamic tumor treatment); set-up: species or system DBA/2 mice; details: for Tumor Response Day 1 (Number of non-palpable tumors/Number treated tumors) / Tumor Response Day 7 (Number of non-palpable tumors/Number treated tumors) / Tumor Response Day 30 (Number of non-palpable tumors/Number treated tumors) / Tumor Response Day 90 (Number of non-palpable tumors/Number treated tumors): time interval 24 hours, 135 J/cm^2 laser at 75 mW/cm^2
Procedure: When 2-[1-(O-hexyl)ethyl]devinyl pyropheophorbide-a - structure (5) in Scheme 1: S—RO—where R═(CH2)5CH3 and m═H, (formula IIa) synthesized as indicated (5.0 mg) is dissolved in Tween 80 (0.1 ml) and mixed with 10 ml Hanks Balanced Salt Solution (HBSS), a solution of approximately 0.5 mg/ml in […] is produced after filtration through a 0.22 AM Millipore filter. […] […] Alternately, a Xenon arc lamp filtered to emit a broader band width near 670 nm and approximately 283 Joules/cm^2 can be used.
This progresses to frank tumor necrosis over the next few days. […] At 30 days post treatment, six of the 10 tumors remain non-palpable, and one remains tumor-free to 90 days post treatment.

tumor = assay: in vivo tumoricidal activity assay; details: injected at a dose of 5 mg/kg
[2] = injected dose 0.1 mg/kg, wavelength 659
[3] = injected dose 0.3 mg/kg, wavelength 659
[4] = injected dose 0.3 mg/kg, wavelength 665
[5] = injected dose 0.3 mg/kg, wavelength 670
[6] = injected dose 0.3 mg/kg, wavelength 680
[7] = ten mice, 0.3 mg/kg intravenously, approx. 24 h later laser light at 660-670 nm, 135 Joules/cm^2
[8] = injected dose 0.1 mg/kg, wavelength 660
[9] = injected dose 0.3 mg/kg, wavelength 660

Normal Foot Response Maximum Reaction (score) ([1]; table row of injected dose 0.1 mg/kg, time interval 24 hours): 0.3 | Normal Foot Response Maximum Reaction (score) ([1]; table row of injected dose 0.3 mg/kg, time interval 48-72 hours): 0
SMILES: CCCCCCOC(C)c1c(C)c2cc3nc(c4c5[nH]c(cc6nc(cc1[nH]2)C(C)=C6CC)c(C)c5C(=O)C4)[C@@H](CCC(=O)O)[C@@H]3C (stereo partly shown) [Formula II R5 = —O—(CH2)5CH3 R7 = —CO2H, 2-{1(O-hexyl)ethyl}devinyl pyropheophorbide-a]
Foot reaction, maximum effect (damage score) ([1]; 0.1 mg/kg intravenously, hind foot exposed after approx. 24 h, 660-670 nm laser 135 Joules/cm^2 or Xenon arc lamp 283 Joules/cm^2, 0.3 equivalent to slight edema): 0.3 | Foot reaction (damage score) ([1]; 0.1 mg/kg intravenously, interval between injection and light treatment approx. 48 h, zero = no damage incurred): zero | Tumor Response Day 1 (Number of non-palpable tumors/Number treated tumors) (SMT-F tumor; injected dose 0.05 mg/kg, wavelength 659): 0/40 | Tumor Response Day 1 (Number of non-palpable tumors/Number treated tumors) (SMT-F tumor; [2]): 6/6 | Tumor Response Day 7 (Number of non-palpable tumors/Number treated tumors) (SMT-F tumor; [2]): 6/6 | Tumor Response Day 30 (Number of non-palpable tumors/Number treated tumors) (SMT-F tumor; [2]): 1/6 | Tumor Response Day 90 (Number of non-palpable tumors/Number treated tumors) (SMT-F tumor; [2]): 1/6 | Tumor Response Day 1 (Number of non-palpable tumors/Number treated tumors) (SMT-F tumor; injected dose 0.3 mg/kg, wavelength 655): 0/10 | Tumor Response Day 1 (Number of non-palpable tumors/Number treated tumors) (SMT-F tumor; [3]): 5/5 | Tumor Response Day 7 (Number of non-palpable tumors/Number treated tumors) (SMT-F tumor; [3]): 4/5 | Tumor Response Day 30 (Number of non-palpable tumors/Number treated tumors) (SMT-F tumor; [3]): 0/5 | Tumor Response Day 1 (Number of non-palpable tumors/Number treated tumors) (SMT-F tumor; [4]): 10/10 | Tumor Response Day 7 (Number of non-palpable tumors/Number treated tumors) (SMT-F tumor; [4]): 10/10 | Tumor Response Day 30 (Number of non-palpable tumors/Number treated tumors) (SMT-F tumor; [4]): 2/10 | Tumor Response Day 90 (Number of non-palpable tumors/Number treated tumors) (SMT-F tumor; [4]): 0/10 | Tumor Response Day 1 (Number of non-palpable tumors/Number treated tumors) (SMT-F tumor; [5]): 10/10 | Tumor Response Day 7 (Number of non-palpable tumors/Number treated tumors) (SMT-F tumor; [5]): 10/10 | Tumor Response Day 30 (Number of non-palpable tumors/Number treated tumors) (SMT-F tumor; [5]): 6/10 | Tumor Response Day 90 (Number of non-palpable tumors/Number treated tumors) (SMT-F tumor; [5]): 1/10 | Tumor Response Day 1 (Number of non-palpable tumors/Number treated tumors) (SMT-F tumor; [6]): 1/10 | Tumor Response Day 7 (Number of non-palpable tumors/Number treated tumors) (SMT-F tumor; [6]): 0/10 | Tumor state at 7 days post treatment (SMT-F tumor; [7]): all tumors remain non-palpable and necrotic | Tumor state the day after light treatment (SMT-F tumor; [7]): all the tumors are seen to be flat (non-palpable) | Tumor-free to 90 days post treatment (number of the 10) (SMT-F tumor; [7]): one | Tumors remaining non-palpable at 30 days post treatment (SMT-F tumor; [7]): six of the 10

SMILES: C=Cc1c(C)c2cc3nc(c4c5[nH]c(cc6nc(cc1[nH]2)C(C)=C6CC)c(C)c5C(=O)[C@@H]4C(=O)OC)[C@@H](CCC(=O)OC)[C@@H]3C [Methyl pheophorbide-a]
in vivo tumoricidal activity (tumor): inactive

SMILES: CCCCCCOC(C)c1c(C)c2cc3nc(c4c5[nH]c(cc6nc(cc1[nH]2)C(C)=C6CC)c(C)c5C(=O)C4)[C@@H](CCC(=O)OC)[C@@H]3C (stereo partly shown) [Methyl-2-{1(O-hexyl)ethyl}-devinyl pyropheophorbide]
Tumor Response Day 1 (Number of non-palpable tumors/Number treated tumors) (SMT-F tumor; [8]): 5/5 | Tumor Response Day 30 (Number of non-palpable tumors/Number treated tumors) (SMT-F tumor; [8]): 0/5 | Tumor Response Day 1 (Number of non-palpable tumors/Number treated tumors) (SMT-F tumor; [9]): 6/6 | Tumor Response Day 7 (Number of non-palpable tumors/Number treated tumors) (SMT-F tumor; [9]): 6/6 | Tumor Response Day 30 (Number of non-palpable tumors/Number treated tumors) (SMT-F tumor; [9]): 3/6 | Tumor Response Day 90 (Number of non-palpable tumors/Number treated tumors) (SMT-F tumor; [9]): 3/6
